# Assay results taken from patent US12077503B2, “Substituted cyclic amides and their use as herbicides” (FMC CORPORATION, priority 2015, dated 2024).
# Columns and labels:
# Assay in all cases: Test C preemergence
# Type in all cases: in vivo
# [1] = tested on: morningglory (Ipomoea coccinea); settings: for Plant response rating (scale of 0 to 100), Morningglory: 0 is no effect, 100 is complete control; for Plant response rating, Morningglory: scale 0 to 100, 0 no effect, 100 complete control
# Procedure, shortened: (§1)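 Greenhouse test: seeds in a loam and sand blend treated preemergence, or seedlings at the 1- to 4-leaf stage (2 to 18 cm) in a peat, vermiculite and limestone mix treated postemergence, with test chemicals in a surfactant-containing non-phytotoxic solvent. Scored by eye at 13 to 15 d relative to controls, 0 (no effect) to 100 (complete control).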
# [2] = tested on: oilseed rape (Brassica napus); settings: for Plant response rating (scale of 0 to 100), Oilseed Rape: 0 is no effect, 100 is complete control; for Plant response rating, Oilseed Rape: scale 0 to 100, 0 no effect, 100 complete control
# Procedure, shortened: as §1
# [3] = tested on: crabgrass, large (large crabgrass, Digitaria sanguinalis); settings: for Plant response rating (scale of 0 to 100), Crabgrass, Large: 0 is no effect, 100 is complete control; for Plant response rating, Crabgrass, Large: scale 0 to 100, 0 no effect, 100 complete control
# Procedure, shortened: as §1
# [4] = tested on: ragweed (common ragweed, Ambrosia elatior); settings: for Plant response rating (scale of 0 to 100), Ragweed: 0 is no effect, 100 is complete control; for Plant response rating, Ragweed: scale 0 to 100, 0 no effect, 100 complete control
# Procedure, shortened: as §1
# [5] = tested on: blackgrass (Alopecurus myosuroides); settings: for Plant response rating (scale of 0 to 100), Blackgrass: 0 is no effect, 100 is complete control; for Plant response rating, Blackgrass: scale 0 to 100, 0 no effect, 100 complete control
# Procedure, shortened: as §1
# [6] = tested on: nutsedge, yellow (yellow nutsedge, Cyperus esculentus); settings: for Plant response rating (scale of 0 to 100), Nutsedge, Yellow: 0 is no effect, 100 is complete control; for Plant response rating, Nutsedge, Yellow: scale 0 to 100, 0 no effect, 100 complete control
# Procedure, shortened: as §1
# [7] = tested on: lambsquarters (Chenopodium album); settings: for Plant response rating (scale of 0 to 100), Lambsquarters: 0 is no effect, 100 is complete control; for Plant response rating, Lambsquarters: scale 0 to 100, 0 no effect, 100 complete control
# Procedure, shortened: as §1
# [8] = tested on: Galium (catchweed bedstraw, Galium aparine); settings: for Plant response rating (scale of 0 to 100), Galium: 0 is no effect, 100 is complete control; for Plant response rating, Galium: scale 0 to 100, 0 no effect, 100 complete control
# Procedure, shortened: as §1
# corn (Zea mays) = settings: for Plant response rating (scale of 0 to 100), Corn: 0 is no effect, 100 is complete control; for Plant response rating, Corn: scale 0 to 100, 0 no effect, 100 complete control
# Procedure, shortened: as §1
# [9] = tested on: velvetleaf (Abutilon theophrasti); settings: for Plant response rating (scale of 0 to 100), Velvetleaf: 0 is no effect, 100 is complete control; for Plant response rating, Velvetleaf: scale 0 to 100, 0 no effect, 100 complete control
# Procedure, shortened: as §1
# [10] = tested on: ryegrass, Italian (Italian ryegrass, Lolium multiflorum); settings: for Plant response rating (scale of 0 to 100), Ryegrass, Italian: 0 is no effect, 100 is complete control; for Plant response rating, Ryegrass, Italian: scale 0 to 100, 0 no effect, 100 complete control
# Procedure, shortened: as §1
# [11] = tested on: pigweed (Amaranthus retroflexus); settings: for Plant response rating (scale of 0 to 100), Pigweed: 0 is no effect, 100 is complete control; for Plant response rating, Pigweed: scale 0 to 100, 0 no effect, 100 complete control
# Procedure, shortened: as §1
# [12] = tested on: wheat (winter wheat, Triticum aestivum); settings: for Plant response rating (scale of 0 to 100), Wheat: 0 is no effect, 100 is complete control; for Plant response rating, Wheat: scale 0 to 100, 0 no effect, 100 complete control
# Procedure, shortened: as §1
# [13] = tested on: foxtail, giant (giant foxtail, Setaria faberii); settings: for Plant response rating (scale of 0 to 100), Foxtail, Giant: 0 is no effect, 100 is complete control; for Plant response rating, Foxtail, Giant: scale 0 to 100, 0 no effect, 100 complete control
# Procedure, shortened: as §1
# soybean (Glycine max) = settings: for Plant response rating (scale of 0 to 100), Soybean: 0 is no effect, 100 is complete control; for Plant response rating, Soybean: scale 0 to 100, 0 no effect, 100 complete control
# Procedure, shortened: as §1
# [14] = tested on: waterhemp (common waterhemp, Amaranthus rudis); settings: for Plant response rating (scale of 0 to 100), Waterhemp: 0 is no effect, 100 is complete control; for Plant response rating, Waterhemp: scale 0 to 100, 0 no effect, 100 complete control
# Procedure, shortened: as §1
# [15] = tested on: barnyardgrass (Echinochloa crus-galli); settings: for Plant response rating (scale of 0 to 100), Barnyardgrass: 0 is no effect, 100 is complete control; for Plant response rating, Barnyardgrass: scale 0 to 100, 0 no effect, 100 complete control
# Procedure, shortened: as §1
smiles,measurement,setting,value
CN1CC(c2ccc(C(C)(F)F)cc2)C(C(=O)Nc2ccccc2F)C1=O (centres unmarked) [Compound 691],"Plant response rating (scale of 0 to 100), Morningglory",[1]; 16 g ai/ha,0
same,"Plant response rating (scale of 0 to 100), Morningglory",[1]; 31 g ai/ha,30
same,"Plant response rating, Morningglory",[1]; 62 g ai/ha,20
same,"Plant response rating, Morningglory",[1]; 125 g ai/ha,40
same,"Plant response rating (scale of 0 to 100), Oilseed Rape",[2]; 16 g ai/ha,0
same,"Plant response rating (scale of 0 to 100), Oilseed Rape",[2]; 31 g ai/ha,35
same,"Plant response rating, Oilseed Rape",[2]; 62 g ai/ha,50
same,"Plant response rating, Oilseed Rape",[2]; 125 g ai/ha,80
same,"Plant response rating (scale of 0 to 100), Crabgrass, Large",[3]; 16 g ai/ha,98
same,"Plant response rating (scale of 0 to 100), Crabgrass, Large",[3]; 31 g ai/ha,100
same,"Plant response rating, Crabgrass, Large",[3]; 62 g ai/ha,100
same,"Plant response rating, Crabgrass, Large",[3]; 125 g ai/ha,100
same,"Plant response rating (scale of 0 to 100), Ragweed",[4]; 16 g ai/ha,0
same,"Plant response rating (scale of 0 to 100), Ragweed",[4]; 31 g ai/ha,100
same,"Plant response rating, Ragweed",[4]; 62 g ai/ha,70
same,"Plant response rating, Ragweed",[4]; 125 g ai/ha,85
same,"Plant response rating (scale of 0 to 100), Blackgrass",[5]; 16 g ai/ha,0
same,"Plant response rating (scale of 0 to 100), Blackgrass",[5]; 31 g ai/ha,0
same,"Plant response rating, Blackgrass",[5]; 62 g ai/ha,5
same,"Plant response rating, Blackgrass",[5]; 125 g ai/ha,75
same,"Plant response rating (scale of 0 to 100), Nutsedge, Yellow",[6]; 16 g ai/ha,0
same,"Plant response rating (scale of 0 to 100), Nutsedge, Yellow",[6]; 31 g ai/ha,0
same,"Plant response rating, Nutsedge, Yellow",[6]; 62 g ai/ha,0
same,"Plant response rating, Nutsedge, Yellow",[6]; 125 g ai/ha,20
same,"Plant response rating (scale of 0 to 100), Lambsquarters",[7]; 16 g ai/ha,70
same,"Plant response rating (scale of 0 to 100), Lambsquarters",[7]; 31 g ai/ha,85
same,"Plant response rating, Lambsquarters",[7]; 62 g ai/ha,90
same,"Plant response rating, Lambsquarters",[7]; 125 g ai/ha,90
same,"Plant response rating (scale of 0 to 100), Galium",[8]; 16 g ai/ha,100
same,"Plant response rating (scale of 0 to 100), Galium",[8]; 31 g ai/ha,100
same,"Plant response rating, Galium",[8]; 62 g ai/ha,95
same,"Plant response rating, Galium",[8]; 125 g ai/ha,95
same,"Plant response rating (scale of 0 to 100), Corn",corn (Zea mays); 16 g ai/ha,0
same,"Plant response rating (scale of 0 to 100), Corn",corn (Zea mays); 31 g ai/ha,40
same,"Plant response rating, Corn",corn (Zea mays); 62 g ai/ha,55
same,"Plant response rating, Corn",corn (Zea mays); 125 g ai/ha,65
same,"Plant response rating (scale of 0 to 100), Velvetleaf",[9]; 16 g ai/ha,10
same,"Plant response rating (scale of 0 to 100), Velvetleaf",[9]; 31 g ai/ha,25
same,"Plant response rating, Velvetleaf",[9]; 62 g ai/ha,40
same,"Plant response rating, Velvetleaf",[9]; 125 g ai/ha,50
same,"Plant response rating (scale of 0 to 100), Ryegrass, Italian",[10]; 16 g ai/ha,0
same,"Plant response rating (scale of 0 to 100), Ryegrass, Italian",[10]; 31 g ai/ha,0
same,"Plant response rating, Ryegrass, Italian",[10]; 62 g ai/ha,35
same,"Plant response rating, Ryegrass, Italian",[10]; 125 g ai/ha,55
same,"Plant response rating (scale of 0 to 100), Pigweed",[11]; 16 g ai/ha,35
same,"Plant response rating (scale of 0 to 100), Pigweed",[11]; 31 g ai/ha,85
same,"Plant response rating, Pigweed",[11]; 62 g ai/ha,90
same,"Plant response rating, Pigweed",[11]; 125 g ai/ha,100
same,"Plant response rating (scale of 0 to 100), Wheat",[12]; 16 g ai/ha,10
same,"Plant response rating (scale of 0 to 100), Wheat",[12]; 31 g ai/ha,10
same,"Plant response rating, Wheat",[12]; 62 g ai/ha,60
same,"Plant response rating, Wheat",[12]; 125 g ai/ha,80
same,"Plant response rating (scale of 0 to 100), Foxtail, Giant",[13]; 16 g ai/ha,95
same,"Plant response rating (scale of 0 to 100), Foxtail, Giant",[13]; 31 g ai/ha,95
same,"Plant response rating, Foxtail, Giant",[13]; 62 g ai/ha,98
same,"Plant response rating, Foxtail, Giant",[13]; 125 g ai/ha,98
same,"Plant response rating (scale of 0 to 100), Soybean",soybean (Glycine max); 16 g ai/ha,0
same,"Plant response rating (scale of 0 to 100), Soybean",soybean (Glycine max); 31 g ai/ha,0
same,"Plant response rating, Soybean",soybean (Glycine max); 62 g ai/ha,15
same,"Plant response rating, Soybean",soybean (Glycine max); 125 g ai/ha,15
same,"Plant response rating (scale of 0 to 100), Waterhemp",[14]; 16 g ai/ha,85
same,"Plant response rating (scale of 0 to 100), Waterhemp",[14]; 31 g ai/ha,85
same,"Plant response rating, Waterhemp",[14]; 62 g ai/ha,95
same,"Plant response rating, Waterhemp",[14]; 125 g ai/ha,95
same,"Plant response rating (scale of 0 to 100), Barnyardgrass",[15]; 16 g ai/ha,90
same,"Plant response rating (scale of 0 to 100), Barnyardgrass",[15]; 31 g ai/ha,90
same,"Plant response rating, Barnyardgrass",[15]; 62 g ai/ha,98
same,"Plant response rating, Barnyardgrass",[15]; 125 g ai/ha,100
